In ChEMBL document CHEMBL1149662, “Design and synthesis of a library of tertiary amides: evaluation as mimetics of the melanocortins' active core” (Bioorg Med Chem, 2007):

Key:
Melanocortin receptor 4 = Melanocortin receptor 4 (Homo sapiens, UniProt P32245); test: Displacement of [125I]NDP-MSH from human recombinant MC4 receptor expressed in Sf9 cells
Melanocortin receptor 3 = Melanocortin receptor 3 (Homo sapiens, UniProt P41968); test: Displacement of [125I]NDP-MSH from human recombinant MC3 receptor expressed in Sf9 cells
[1] = target: Melanocyte-stimulating hormone receptor (Mus musculus, UniProt Q01727); test: Displacement of [125I]NDP-MSH from MC1 receptor in mouse B16 cells; format: cell-based
Melanocortin receptor 5 = Melanocortin receptor 5 (Homo sapiens, UniProt P33032); test: Displacement of [125I]NDP-MSH from human recombinant MC5 receptor expressed in Sf9 cells
Chain of Melanocortin receptor 5 (P33032 whole entry): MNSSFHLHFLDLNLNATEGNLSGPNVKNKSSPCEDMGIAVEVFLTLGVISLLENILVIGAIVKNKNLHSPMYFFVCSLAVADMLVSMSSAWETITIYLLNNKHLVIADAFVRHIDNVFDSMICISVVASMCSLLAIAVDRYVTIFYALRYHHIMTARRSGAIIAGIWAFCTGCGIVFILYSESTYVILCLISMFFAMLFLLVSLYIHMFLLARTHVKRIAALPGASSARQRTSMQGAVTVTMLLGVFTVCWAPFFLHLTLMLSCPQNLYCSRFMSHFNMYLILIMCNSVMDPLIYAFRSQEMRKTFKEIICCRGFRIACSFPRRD

Chain of Melanocortin receptor 3 (P41968 whole entry): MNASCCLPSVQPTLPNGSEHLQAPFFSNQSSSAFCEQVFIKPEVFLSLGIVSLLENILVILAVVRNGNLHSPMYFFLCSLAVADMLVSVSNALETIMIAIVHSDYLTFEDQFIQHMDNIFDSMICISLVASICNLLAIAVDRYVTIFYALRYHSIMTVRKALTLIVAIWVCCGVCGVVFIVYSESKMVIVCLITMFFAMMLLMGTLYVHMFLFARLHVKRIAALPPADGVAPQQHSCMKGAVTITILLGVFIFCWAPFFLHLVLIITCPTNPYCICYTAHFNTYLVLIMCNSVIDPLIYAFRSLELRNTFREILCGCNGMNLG
Chain of Melanocyte-stimulating hormone receptor (Q01727 whole entry): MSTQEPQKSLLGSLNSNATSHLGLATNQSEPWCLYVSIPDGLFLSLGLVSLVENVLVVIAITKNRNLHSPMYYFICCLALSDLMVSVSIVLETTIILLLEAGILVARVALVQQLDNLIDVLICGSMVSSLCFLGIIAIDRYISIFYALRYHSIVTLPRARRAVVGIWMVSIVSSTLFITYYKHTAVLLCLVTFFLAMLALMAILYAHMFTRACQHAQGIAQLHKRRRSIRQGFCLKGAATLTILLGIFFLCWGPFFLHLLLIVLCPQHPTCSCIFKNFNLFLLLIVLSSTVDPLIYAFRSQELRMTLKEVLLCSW
Chain of Melanocortin receptor 4 (P32245 whole entry): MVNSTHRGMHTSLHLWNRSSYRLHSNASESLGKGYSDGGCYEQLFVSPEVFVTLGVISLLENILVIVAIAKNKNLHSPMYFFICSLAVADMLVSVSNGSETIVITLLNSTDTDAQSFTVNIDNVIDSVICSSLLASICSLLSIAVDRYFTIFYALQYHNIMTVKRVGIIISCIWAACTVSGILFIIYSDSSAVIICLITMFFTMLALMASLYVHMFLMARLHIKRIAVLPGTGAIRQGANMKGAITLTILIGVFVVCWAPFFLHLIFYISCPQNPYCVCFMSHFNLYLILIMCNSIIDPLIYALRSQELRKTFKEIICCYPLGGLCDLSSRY

Ki (Melanocortin receptor 4) [µM]	Ki (Melanocortin receptor 3) [µM]	Ki [1] [µM]	Ki (Melanocortin receptor 5) [µM]	SMILES
9.8	104	7.4	55	CC(c1csc2ccccc12)N(CCCN)C(=O)CCCc1c[nH]c2ccccc12 (stereo not drawn)
4.9	2.1	6	3.4	NCCN(C(=O)COc1ccc2ccccc2c1)C1CCC2(CCCCC2)CC1
7	18	6.1	31	NCCCN(C/C(Cl)=C/c1ccccc1)C(=O)CCCc1c[nH]c2ccccc12
5.3	57	2.2	49	NC1CCCC(NC(=O)NC2CCCC(N(Cc3ccccc3)C(=O)CCCc3c[nH]c4ccccc34)C2)C1 (stereo not drawn)
7.4	5.4	2.9	9.1	COc1cc(Br)c(CN(C(=O)CCCc2c(Cc3ccc(O)cc3)[nH]c3ccccc23)[C@H]2CC[C@@H](C[C@H]3CC[C@H](N)CC3)CC2)cc1OC
2.1	26	2.1	12	CCOc1cc(CN(C(=O)CCCc2c(Cc3ccc(O)cc3)[nH]c3ccccc23)C2CCC(CC3CCC(N)CC3)CC2)ccc1OC (stereo not drawn)
11	11	4.4	19	CC(c1ccc2ccccc2c1)N(CCN)C(=O)Cc1c[nH]c2ccccc12 (stereo not drawn)
13	41	5	24	NCCCCCN(Cc1ccccc1)C(=O)[C@H](N)Cc1ccc2ccccc2c1
11	27	3.7	20	C/C(=C\c1ccccc1)CN(CCCCCCN)C(=O)c1cc2cc(O)ccc2[nH]1
3.7	22	3.2	8.3	COc1ccc(CN(C(=O)CCCc2c[nH]c3ccccc23)C2CCC(CC3CCC(N)CC3)CC2)cc1OC (stereo not drawn)
18	45	3.1	16	NC1CCCC(NC(=O)NC2CCCC(N(C/C(Cl)=C/c3ccccc3)C(=O)CCCc3c[nH]c4ccccc34)C2)C1 (stereo not drawn)
5.4	32	2.4	85	NCCCCN(C/C(Cl)=C/c1ccccc1)C(=O)CCCc1c[nH]c2ccccc12
44	43	34	54	NCCCCCN(Cc1ccccc1)C(=O)[C@@H](N)Cc1c[nH]c2ccccc12
7.7	17	1.5	6.4	NCc1cccc(CN(Cc2ccc3ccccc3c2)C(=O)CCCc2c[nH]c3ccccc23)c1
116	50	12	21	NC(N)=NCCCCN(Cc1ccc2ccccc2c1)C(=O)CCc1c[nH]c2ccccc12
149	65	14	17	N=C(N)NCCN(Cc1ccc2ccccc2c1)C(=O)CCc1c[nH]c2ccccc12
78	289	72	408	CCCCCN(Cc1ccc(N(CC)CC)cc1)C(=O)CCCc1c[nH]c2ccccc12
21	542	26	681	NCCCN(C(=O)c1cc2cc(OCc3ccccc3)ccc2[nH]1)C1CCc2ccccc2C1 (stereo not drawn)
14	25	6.1	46	NCCCCCN(C(=O)CCCc1c[nH]c2ccccc12)C1C2CC3CC(C2)CC1C3 (stereo not drawn)
11	31	1.8	52	NC1CCCC(NC(=O)N[C@H]2CC[C@H](N(Cc3ccccc3)C(=O)CCCc3c[nH]c4ccccc34)CC2)C1 (stereo partly drawn)
2.5	132	2.6	23	COc1ccc(CN(C(=O)CCCc2c(Cc3ccc(O)cc3)[nH]c3ccccc23)C2CCC(CC3CCC(N)CC3)CC2)cc1Br (stereo not drawn)
4	9.6	5.4	24	N=C(N)NC1CCC(CC2CCC(N(C/C(Cl)=C/c3ccccc3)C(=O)CCCc3c[nH]c4ccccc34)CC2)CC1 (stereo in doubt; form 1)
7.1	30	1.8	56	COc1ccc2c(c1)c(CC(=O)N(CCCCN)C/C(C)=C/c1ccccc1)c(C)n2C(=O)c1ccc(Cl)cc1
1.5	55	1	36	NC1CCC(CC2CCC(N(Cc3ccccc3F)C(=O)CCCc3c(Cc4ccc(O)cc4)[nH]c4ccccc34)CC2)CC1 (stereo not drawn)
3.8	27	0.81	5.5	C=C(Br)CN(C(=O)CCCc1c[nH]c2ccccc12)C1CCC(CC2CCC(N)CC2)CC1 (stereo in doubt; form 4)
3.4	78	2.9	16	Cc1cccc(CN(C(=O)CCCc2c(Cc3ccc(O)cc3)[nH]c3ccccc23)C2CCC(CC3CCC(N)CC3)CC2)c1 (stereo not drawn)

Ki (Melanocortin receptor 4) [µM]	Ki (Melanocortin receptor 3) [µM]	Ki [1] [µM]	Ki (Melanocortin receptor 5) [µM]	SMILES
6.4	15	3.2	4.6	NCCCCCN(Cc1ccccc1)C(=O)CCCc1c[nH]c2ccccc12
2.2	14	2.1	9.6	COC(=O)c1ccc(CN(C(=O)CCCc2c[nH]c3ccccc23)C2CCC(CC3CCC(N)CC3)CC2)cc1 (stereo not drawn)
16	12	5.9	267	NCCCN(Cc1ccc2ccccc2c1)C(=O)Cc1ccc2ccccc2c1
14	63	6.8	91	C/C(=C\c1ccccc1)CN(CCCN)C(=O)CCCc1cccs1
6.8	45	3.1	8.4	N[C@H]1CC[C@H](C[C@H]2CC[C@H](N(C/C(Cl)=C/c3ccccc3)C(=O)CCCc3c[nH]c4ccccc34)CC2)CC1
3.1	13	2.2	4.8	CC1CC(CC2CCC(N(C/C(Cl)=C/c3ccccc3)C(=O)CCCc3c[nH]c4ccccc34)C(C)C2)CCC1N (stereo in doubt; form 2)
3.7	23	1.5	5.5	NC1CCC(CC2CCC(N(C/C(Cl)=C/c3ccccc3)C(=O)COc3ccc4ccccc4c3)CC2)CC1 (stereo in doubt; 10b-36-14)
182	137	17	16	N=C(N)NCCCCN(Cc1ccc2ccccc2c1)C(=O)Cc1c[nH]c2ccccc12
3.4	19	1.5	2.6	N=C(N)NC1CCC(CC2CCC(N(Cc3ccccc3)C(=O)CCCc3c[nH]c4ccccc34)CC2)CC1 (stereo not drawn)
42	16	4	29	NCCN(C(=O)Cc1c[nH]c2ccccc12)C1CCc2ccccc2C1 (stereo not drawn)
6.8	7.4	1	4.3	NCCCN(C/C(Cl)=C/c1ccccc1)C(=O)C(=O)c1c[nH]c2ccccc12
16	14	6	35	NCCCCCN(C(=O)Cc1c[nH]c2ccccc12)C1CCCCCC1
2	17	0.96	8.7	NC1CCC(CC2CCC(N(C/C(Cl)=C/c3ccccc3)C(=O)CCCc3c[nH]c4ccccc34)CC2)CC1 (stereo in doubt; form 2)
3.8	26	2.4	21	NCCCCCCN(C/C(Cl)=C/c1ccccc1)C(=O)CCCc1c[nH]c2ccccc12
96	162	37	102	NCCCCCN(Cc1ccccc1)C(=O)[C@H](N)Cc1ccc([N+](=O)[O-])cc1
165	106	90	353	CC(C)N(CCCCN)C(=O)c1c(Cc2ccc(O)cc2)[nH]c2ccccc12
81	65	21	11	NCCCN(C/C=C/c1ccccc1)C(=O)CCc1c[nH]c2ccccc12
4.1	7.1	0.51	47	NC1CCC(CC2CCC(N(C/C(Cl)=C/c3ccccc3)C(=O)CCCc3c[nH]c4ccccc34)CC2)CC1 (stereo in doubt; form 1)
32	5.7	5	13	NCCCN(CCCc1ccccc1)C(=O)Cc1c[nH]c2ccccc12
4.1	349	4.7	4.4	Cc1ccccc1CN(C(=O)CCCc1c(Cc2ccc(O)cc2)[nH]c2ccccc12)C1CCC(CC2CCC(N)CC2)CC1 (stereo not drawn)
5	17	1.6	4.9	NCCCN(C/C=C/c1ccccc1)C(=O)C(=O)c1c[nH]c2ccccc12
5.6	39	4.6	49	NC1CCC(CC2CCC(N(Cc3ccccn3)C(=O)CCCc3c[nH]c4ccccc34)CC2)CC1 (stereo not drawn)
2.1	16	2.9	9.5	CCOc1cc(CN(C(=O)CCCc2c[nH]c3ccccc23)C2CCC(CC3CCC(N)CC3)CC2)ccc1OC (stereo not drawn)
4.8	12	4.2	12	NC1CCC(CC2CCC(N(C/C(Cl)=C/c3ccccc3)C(=O)c3cc4cc(OCc5ccccc5)ccc4[nH]3)CC2)CC1 (stereo not drawn)
16	52	6.4	22	NCCCN1CCN(CCCN(Cc2ccccc2)C(=O)CCCc2c[nH]c3ccccc23)CC1
2.3	24	2.1	5.2	NC1CCC(CC2CCC(N(CCc3c(F)cccc3Cl)C(=O)CCCc3c[nH]c4ccccc34)CC2)CC1 (stereo not drawn)
